Entries after “also recorded” stand apart in the source; their conditions may differ.
Test system: ERG target genes in VCaP cells
Assay: qPCR analysis of ERG-target genes in VCaP cells
Type: cell-based, human
Settings: siRNA or drug for 48 hours
Method: Total RNA was isolated from VCAP, RWPE or PrEC cells that were transfected with siRNA as indicated (Qiagen). Quantitative PCR (QPCR) was performed using SYBR Green dye on an Applied Biosystems 7300 Real Time PCR system (Applied Biosystems, Foster City, Calif.) as described (Tomlins, S. A., et al. Science (New York, N.Y. 310, 644-648 (2005)). Briefly, 1 μg of total RNA was reverse transcribed into cDNA using SuperScript 111 (Invitrogen, Carlsbad, Calif.) in the presence of random primers (Invitrogen). All reactions were performed in triplicate with SYBR Green Master Mix (Applied Biosystems) plus 25 ng of both the forward and reverse primer according to the manufacturer's recommended thermocycling conditions, and then subjected to melt curve analysis. […] The relative quantity of the target gene was completed for each sample using the ΔΔCt method by the comparing mean Ct of the gene to the average Ct of the housekeeping gene, β-Actin8. […] The primer sequences for the transcript analyzed were either previously described (Tomlins et al., 2008, supra) or are provided in Table 4.
Total RNA was isolated from VCAP, RWPE or PrEC cells that were transfected with siRNA as indicated (Qiagen). […] The relative quantity of the target gene was completed for each sample using the ΔΔCt method by the comparing mean Ct of the gene to the average Ct of the housekeeping gene, β-Actin8. […]

For `O=C(c1cc(Cc2n[nH]c(=O)c3ccccc23)ccc1F)N1CCN(C(=O)C2CC2)CC1` [Olaparib, 4-[3-(4-Cyclopropanecarbonylpiperazine-1-carbonyl)-4-fluorobenzyl]-2H-phthalazin-1-one], the “expression of the ERG target genes (qPCR)” value was “confirmed gene expression changes as predicted by the gene expression arrays; also recorded: altered expression of the ERG target genes”.

From patent US20120035244A1, “PARP1 TARGETED THERAPY” (THE REGENTS OF THE UNIVERSITY OF MICHIGAN, priority 2010, published 2012)
